The source of these data is patent US20160008297A1, “COMPOUNDS FOR PREVENTING, REDUCING AND/OR ALLEVIATING ITCHY SKIN CONDITION(S)” (B.R.A.I.N. Biotechnology Research And Information Network AG, priority 2012, published 2016).

The experiment deals with T1, PAR-2 (Homo sapiens, UniProt P55085).
T1 construct: Human embryonic kidney 293 cells (HEK293) endogenously expressing PAR-2; endogenous in cells; host or cells: HEK293
T1 sequence (P55085 26-397): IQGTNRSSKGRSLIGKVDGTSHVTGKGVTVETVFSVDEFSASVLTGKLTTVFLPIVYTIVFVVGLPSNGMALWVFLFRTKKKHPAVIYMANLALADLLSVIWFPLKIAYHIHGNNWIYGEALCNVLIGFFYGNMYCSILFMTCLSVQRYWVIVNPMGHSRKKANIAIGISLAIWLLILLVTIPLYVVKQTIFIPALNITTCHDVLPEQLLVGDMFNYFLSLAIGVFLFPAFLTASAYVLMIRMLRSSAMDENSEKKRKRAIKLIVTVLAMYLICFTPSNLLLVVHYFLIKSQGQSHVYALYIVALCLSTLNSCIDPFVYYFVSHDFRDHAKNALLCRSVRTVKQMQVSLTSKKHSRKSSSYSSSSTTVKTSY
As to the kind of experiment: Cell-based calcium assay (Fluo-4 AM) for PAR-2 antagonists, SLIGRL-evoked signal. The note with it: in the presence of 2 μM SLIGRL, HEK293 cells; read-out: IC50 of PAR-2 antagonism (inhibition of SLIGRL induced PAR-2 activation). The method, then: Cell-based calcium assay for the identification of PAR-2 antagonists based on fluorescent dye Fluo4-AM
Functional modulation of PAR-2 by the tested compounds was measured and quantified using the calcium sensitive fluorescent probe Fluo-4 AM on a fluorescence microplate reader. Activation of PAR-2 by an agonist (SLIGRL) led to an increase in the intracellular calcium concentration and thus an increase in fluorescence intensity.
Human embryonic kidney 293 cells (HEK293) endogenously expressing PAR-2 were cultured in DMEM (high glucose) supplemented with tetracycline-free FCS (10% v/v), L-glutamine (4 mM), blasticidin (15 μg/ml), zeocin (100 μg/ml) and puromycin (2 μg/ml) in a water-saturated atmosphere at 37° C. and 5% CO2.
Cells were seeded onto 96-well clear-bottom black-walled assay plates at a density of 45,000 cells per well in 100 μl of cell culture medium. Intracellular calcium increase in the living cells due to receptor activation was monitored 24 h later using the calcium sensitive fluorescent probe Fluo-4 AM on a fluorescence microplate reader (FlexStation® system, Molecular Devices). Therefore 100 μl Krebs-HEPES (KH) buffer (118 mM NaCl; 4.7 mM KCl; 1.3 mM CaCl2; 1.2 mM MgSO4; 1.2 mM KH2PO4; 4.2 mM NaHCO3; 10 mM Hepes, pH 7.4) supplemented with sulfinpyrazone (250 μM) and Fluo-4 AM (4 μM) were added and the cells were incubated for an additional hour in a water-saturated atmosphere at 37° C. and 5% CO2.
Medium was replaced with 150 μl KH buffer supplemented with sulfinpyrazone (250 μM). Subsequently, 50 μl KH buffer supplemented with the screening compounds (final concentration of 10 μM under measurement conditions) or control substances were added and the cells were incubated for 10 min. under assay conditions in the microplate reader. Changes in fluorescence were recorded at 37° C. after addition of 50 μl KH buffer supplemented with the PAR-2 peptide agonist SLIGRL (final concentration of 2 μM under measurement conditions).
Calcium mobilization was quantified as the change of peak fluorescence (ΔF) over the baseline level (F). The data was analyzed with the software of the microplate reader. Potential PAR-2 antagonists were tested in an effective range of 1-100 μM for their capacity to reduce the SLIGRL-evoked signal.
A cellular in vitro assay was developed with human embryonic kidney 293 cells (HEK293) endogenously expressing PAR-2. The PAR-2 activating peptide SLIGRL (EC50: ˜0.6 μM) was used as an agonistic stimulus with subsequent Fluo-4 dependent intracellular calcium detection (calcium imaging).
In the case of `COc1cc(/C=C/C(=O)CC(=O)/C=C/c2ccc(O)c(OC)c2)ccc1O` [formula 8, 1,7-Bis-(4-hydroxy-3-methoxyphenyl)-hepta-1,6-dien-3,5-dione], the IC50 is 25 to 100 µM.
As for `COc1cc(CCC(=O)CC(=O)CCc2ccc(O)c(OC)c2)ccc1O` [formula 4, 1,7-Bis-(4-hydroxy-3-methoxyphenyl)-3,5-heptanedione], the half-maximal inhibitory concentration (IC50) is 25 to 100 µM.
On to `COc1ccc(/C=C/C(=O)CC(=O)/C=C/c2ccc(OC)cc2)cc1` [formula 7, 1,7-Bis-(4-methoxyphenyl)-hepta-1,6-dien-3,5-dione], for which the IC50 lay within 25 to 100 µM.
For the compound `COc1ccc(CCC(=O)CC(=O)CCc2ccc(OC)cc2)cc1` [formula 3, 1,7-Bis-(4-methoxyphenyl)-3,5-heptanedione], the half-inhibitory concentration (IC50) amounted to 67.8 µM.

In general, IC50 refers to the concentration needed to halve the response being measured.
